Measured values reported in ChEMBL document CHEMBL1149454, “Synthesis and in vitro antitubercular activity of some 1-[(4-sub)phenyl]-3-(4-{1-[(pyridine-4-carbonyl)hydrazono]ethyl}phenyl)thiourea” (Bioorg Med Chem Lett, 2006).
Converted amounts (≈) assume the structure as drawn.

These molecules were tested on Mycobacterium tuberculosis (assay: Antibacterial activity against INH-resistant Mycobacterium tuberculosis).
Type: functional

Row | Compound | MIC [µM]
1 | C/C(=N/NC(=O)c1ccncc1)c1ccc(N/C(S)=N/c2ccc(C)cc2)cc1 | 3.86 (≈ 1.56 µg/mL)
2 | C/C(=N/NC(=O)c1ccncc1)c1ccc(N/C(S)=N/c2ccc(F)cc2)cc1 | 0.49 (≈ 0.2 µg/mL)
3 | COc1ccc(N/C(S)=N\c2ccc(/C(C)=N\NC(=O)c3ccncc3)cc2)cc1 | 1.85 (≈ 0.776 µg/mL)
4 | CCOc1ccc(N/C(S)=N\c2ccc(/C(C)=N\NC(=O)c3ccncc3)cc2)cc1 | 1.79 (≈ 0.776 µg/mL)
5 | C/C(=N/NC(=O)c1ccncc1)c1ccc(N/C(S)=N/c2ccccc2)cc1 | 4 (≈ 1.56 µg/mL)
6 | C/C(=N/NC(=O)c1ccncc1)c1ccc(N/C(S)=N/c2ccc(Br)cc2)cc1 | 1.66 (≈ 0.778 µg/mL)
7 | NNC(=O)c1ccncc1 [ISONIAZID] | 90.9 (≈ 12.5 µg/mL)
